Measurements as given in US7312227B2, “Compositions useful as inhibitors of JAK and other protein kinases” (Vertex Pharmaceuticals Incorporated, priority 2002, dated 2007).

Key:
Type in all cases: biochemical
JAK3 = biological target: T1, JAK3 (Homo sapiens, UniProt P52333); assay: JAK3 inhibition assay; details: 2 μM ATP, Poly (Glu, Ala, Tyr) 6:3:1 coated plates, 60 minutes at 30° C.
T1 sequence (P52333 1-1124): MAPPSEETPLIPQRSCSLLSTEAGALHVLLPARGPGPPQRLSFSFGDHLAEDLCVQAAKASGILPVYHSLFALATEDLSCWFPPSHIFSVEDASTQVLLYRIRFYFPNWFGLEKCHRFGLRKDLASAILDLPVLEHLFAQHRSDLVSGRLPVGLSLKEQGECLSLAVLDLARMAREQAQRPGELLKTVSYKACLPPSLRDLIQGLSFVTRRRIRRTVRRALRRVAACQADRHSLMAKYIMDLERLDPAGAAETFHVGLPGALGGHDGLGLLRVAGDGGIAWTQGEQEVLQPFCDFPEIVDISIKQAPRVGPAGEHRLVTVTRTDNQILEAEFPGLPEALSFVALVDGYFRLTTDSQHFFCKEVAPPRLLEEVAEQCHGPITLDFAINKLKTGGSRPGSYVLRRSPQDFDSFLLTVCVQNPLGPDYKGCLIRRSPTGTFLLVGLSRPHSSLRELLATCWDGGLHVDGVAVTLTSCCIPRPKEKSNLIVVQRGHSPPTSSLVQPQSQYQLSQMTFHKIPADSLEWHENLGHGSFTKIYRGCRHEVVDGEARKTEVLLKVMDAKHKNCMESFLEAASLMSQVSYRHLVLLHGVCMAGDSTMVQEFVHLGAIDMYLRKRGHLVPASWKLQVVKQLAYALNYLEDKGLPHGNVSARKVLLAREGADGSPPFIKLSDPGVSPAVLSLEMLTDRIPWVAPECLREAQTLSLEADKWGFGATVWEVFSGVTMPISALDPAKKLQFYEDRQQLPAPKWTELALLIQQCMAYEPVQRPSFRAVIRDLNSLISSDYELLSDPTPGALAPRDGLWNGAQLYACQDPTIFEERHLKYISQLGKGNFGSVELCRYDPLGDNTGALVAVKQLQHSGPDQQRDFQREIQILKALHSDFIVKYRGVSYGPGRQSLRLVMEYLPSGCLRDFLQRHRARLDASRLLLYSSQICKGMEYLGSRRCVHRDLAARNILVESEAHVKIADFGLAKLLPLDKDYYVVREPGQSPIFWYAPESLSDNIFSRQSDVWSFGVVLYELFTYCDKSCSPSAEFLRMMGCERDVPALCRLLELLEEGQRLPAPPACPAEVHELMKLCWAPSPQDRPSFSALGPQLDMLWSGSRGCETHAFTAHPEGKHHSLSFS
Method: Compound inhibition of JAK was assayed by the method described by G. R. Brown, et al, Bioorg. Med. Chem. Lett. 2000, vol. 10, pp 575-579 in the following manner. Into Maxisorb plates, previously coated at 4° C. with Poly (Glu, Ala, Tyr) 6:3:1 then washed with phosphate buffered saline 0.05% and Tween (PBST), was added 2 μM ATP, 5 mM MgCl2, and a solution of compound in DMSO. The reaction was started with JAK enzyme and the plates incubated for 60 minutes at 30° C. The plates were then washed with PBST, 100 μL HRP-Conjugated 4G10 antibody was added, and the plate incubated for 90 minutes at 30° C. The plate was again washed with PBST, 100 μL TMB solution is added, and the plates were incubated for another 30 minutes at 30° C. Sulfuric acid (100 μL of 1M) was added to stop the reaction and the plate is read at 450 nm, and Ki values were determined.

CDK-2/Cyclin A = CDK-2/Cyclin A (Homo sapiens, UniProt P24941); assay: CDK2 inhibition assay (coupled enzyme assay); details: 100 μM ATP, 100 μM peptide, 25 nM CDK-2/Cyclin A, 30° C.
Method: Compounds were screened for their ability to inhibit CDK-2/Cyclin A using a standard coupled enzyme assay (Fox et al (1998) Protein Sci 7, 2249). Reactions were carried out in 100 mM HEPES pH 7.5, 10 mM MgCl2, 25 mM NaCl, 1 mM DTT and 1.5% DMSO. Final substrate concentrations in the assay were 100 μM ATP (Sigma chemicals) and 100 μM peptide (American Peptide, Sunnyvale, Calif.). Assays were carried out at 30° C. and 25 nM CDK-2/Cyclin A. Final concentrations of the components of the coupled enzyme system were 2.5 mM phosphoenolpyruvate, 350 μM NADH, 30 μg/ml pyruvate kinase and 10 μg/ml lactate dehydrogenase.
An assay stock buffer solution was prepared containing all of the reagents listed above, with the exception of CDK-2/Cyclin A, DTT and the test compound of interest. 56 μl of the test reaction was placed in a 384 well plate followed by addition of 1 μl of 2 mM DMSO stock containing the test compound (final compound concentration 30 μM). The plate was preincubated for ˜10 minutes at 30° C. and the reaction initiated by addition of 10 μl of enzyme (final concentration 25 nM). Rates of reaction were obtained using a BioRad Ultramark plate reader (Hercules, Calif.) over a 5 minute read time at 30° C. and Ki values were determined.

JNK3 = JNK3 (Homo sapiens, UniProt P53779); assay: JNK3 inhibition assay (spectrophotometric coupled-enzyme assay); details: 10 nM activated JNK3, 10 μM ATP, 200 μM EGF receptor peptide, 30° C.
Chain of JNK3 (P53779 whole entry): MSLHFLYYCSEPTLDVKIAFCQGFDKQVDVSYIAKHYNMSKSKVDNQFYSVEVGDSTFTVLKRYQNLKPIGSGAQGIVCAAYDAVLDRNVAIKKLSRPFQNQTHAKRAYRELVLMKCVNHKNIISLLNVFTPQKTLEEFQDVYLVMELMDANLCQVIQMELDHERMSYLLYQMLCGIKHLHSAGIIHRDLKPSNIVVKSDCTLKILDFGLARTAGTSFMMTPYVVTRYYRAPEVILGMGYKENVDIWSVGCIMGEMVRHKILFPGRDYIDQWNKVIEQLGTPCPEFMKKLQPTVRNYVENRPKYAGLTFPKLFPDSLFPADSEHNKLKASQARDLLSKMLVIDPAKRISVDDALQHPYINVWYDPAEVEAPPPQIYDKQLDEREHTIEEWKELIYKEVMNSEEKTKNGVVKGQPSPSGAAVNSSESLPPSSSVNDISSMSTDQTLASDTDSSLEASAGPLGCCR
Method: Compounds were assayed for the inhibition of JNK3 by a spectrophotometric coupled-enzyme assay. In this assay, a fixed concentration of activated JNK3 (10 nM) was incubated with various concentrations of a potential inhibitor dissolved in DMSO for 10 minutes at 30° C. in a buffer containing 0.1 M HEPES buffer, pH 7.5, containing 10 mM MgCl2, 2.5 mM phosphoenolpyruvate, 200 μM NADH, 150 μg/mL pyruvate kinase, 50 μg/mL lactate dehydrogenase, and 200 μM EGF receptor peptide. The EGF receptor is a phosphoryl acceptor in the JNK3-catalyzed kinase reaction. The reaction was initiated by the addition of 10 μM ATP and the assay plate is inserted into the spectrophotometer's assay plate compartment that was maintained at 30° C. The decrease of absorbance at 340 nm was monitored as a function of time. The rate data as a function of inhibitor concentration was fitted to competitive inhibition kinetic model to determine the Ki.

O=C(NCC1CCCO1)c1cccc(-c2ccnc(Nc3ccccc3)n2)c1 (centres unmarked) [IV-C(i)-15]
Ki (JAK3): ≤ 1000 nM

O=C(Nc1cccc(-c2ccnc(Nc3cccc(O)c3)n2)c1)c1ccco1 [IV-A(i)-4]
Ki (JAK3): ≤ 1000 nM

Nc1cccc(Nc2nccc(-c3cccc(NC(=O)c4ccccn4)c3)n2)c1 [IV-A(i)-5]
Ki (JAK3): ≤ 1000 nM

O=C(NC1CCCCC1)c1ccc(-c2ccnc(Nc3ccccc3)n2)cc1 [IV-D(i)-4]
Ki (CDK-2/Cyclin A): ≤ 1000 nM

Cc1ccc(-c2ccnc(Nc3ccccc3)n2)cc1C(=O)Nc1ccccc1 [IV-C(i)-2]
Ki (CDK-2/Cyclin A): ≤ 1000 nM

Nc1cccc(Nc2nccc(-c3ccc(NC(=O)CN4CCC(CO)CC4)cc3)n2)c1 [IV-B(i)-7]
Ki (JAK3): ≤ 1000 nM

Nc1cccc(Nc2nccc(-c3cccc(NC(=O)c4cccs4)c3)n2)c1 [IV-A(i)-6]
Ki (JAK3): ≤ 1000 nM

Nc1cccc(Nc2nccc(-c3ccc(NC(=O)c4cccs4)cc3)n2)c1 [IV-B(i)-2]
Ki (CDK-2/Cyclin A): ≤ 1000 nM | Ki (JNK3): ≤ 1000 nM | Ki (JAK3): ≤ 1000 nM

COc1cccc(Nc2nccc(-c3cccc(N(C)C(=O)c4ccco4)c3)n2)c1 [IV-A(i)-2]
Ki (JAK3): ≤ 1000 nM

O=C(COc1ccccc1)Nc1ccc(-c2ccnc(Nc3cccc(O)c3)n2)cc1 [IV-B(i)-11]
Ki (CDK-2/Cyclin A): ≤ 1000 nM | Ki (JNK3): ≤ 1000 nM | Ki (JAK3): ≤ 1000 nM

NS(=O)(=O)c1cccc(Nc2nccc(-c3ccc(NC(=O)COc4ccccc4)cc3)n2)c1 [IV-B(i)-1]
Ki (JAK3): ≤ 1000 nM

Nc1cccc(Nc2nccc(-c3ccc(NC(=O)c4ccco4)cc3)n2)c1 [IV-B(i)-4]
Ki (JAK3): ≤ 1000 nM

O=C(NCc1ccccc1)c1ccc(-c2ccnc(Nc3ccccc3)n2)cc1 [IV-D(i)-2]
Ki (JAK3): ≤ 1000 nM

Nc1cccc(Nc2nccc(-c3ccc(NC(=O)CN4CCCC4CO)cc3)n2)c1 (centres unmarked) [IV-B(i)-9]
Ki (JAK3): ≤ 1000 nM

NS(=O)(=O)c1cccc(Nc2nccc(-c3cccc(NC(=O)c4ccco4)c3)n2)c1 [IV-A(i)-1]
Ki (JAK3): ≤ 1000 nM

O=C(Nc1ccc(-c2ccnc(Nc3cccc(O)c3)n2)cc1)c1cccs1 [IV-B(i)-10]
Ki (JAK3): ≤ 1000 nM

Nc1cccc(Nc2nccc(-c3ccc(NC(=O)COc4ccccc4)cc3)n2)c1 [IV-B(i)-3]
Ki (JAK3): ≤ 1000 nM

Nc1cccc(Nc2nccc(-c3ccc(NC(=O)CN4CCOCC4)cc3)n2)c1 [IV-B(i)-5]
Ki (JAK3): ≤ 1000 nM

Nc1cccc(Nc2nccc(-c3ccc(NC(=O)CN4CCC(O)CC4)cc3)n2)c1 [IV-B(i)-8]
Ki (JAK3): ≤ 1000 nM

Cc1ccc(-c2ccnc(Nc3ccccc3)n2)cc1C(=O)NCc1ccccc1 [IV-C(i)-4]
Ki (CDK-2/Cyclin A): ≤ 1000 nM

Nc1cccc(Nc2nccc(-c3ccc(NC(=O)CN4CCCC(CO)C4)cc3)n2)c1 (centres unmarked) [IV-B(i)-6]
Ki (JAK3): ≤ 1000 nM

Cc1ccc(-c2ccnc(Nc3ccccc3)n2)cc1C(=O)NC1CCCCC1 [IV-C(i)-3]
Ki (CDK-2/Cyclin A): ≤ 1000 nM
